Source: ChEMBL document CHEMBL3400055, “(+)- and (-)-liriodenol, a pair of novel enantiomeric lignans from Liriodendron hybrid” (Bioorg Med Chem Lett, 2015)
≈ marks a conversion by molar mass, not a printed value.

Experiments:
Format in all cases: functional, cell-based
[1] = Cytotoxic activity against human BGC823 cells after 48 hrs by MTT assay; conditions: BGC-823, 48 h
MDA-MB-231 = experiment: Cytotoxic activity against human MDA-MB-231 cells after 48 hrs by MTT assay; conditions: MDA-MB-231, 48 h
[2] = Cytotoxic activity against human SGC7901 cells after 48 hrs by MTT assay; conditions: SGC-7901, 48 h
NCI-H460 = experiment: Cytotoxic activity against human NCI-H460 cells after 48 hrs by MTT assay; conditions: NCI-H460, 48 h

| SMILES | IC50 [1] [mg/L] | IC50 (MDA-MB-231) [mg/L] | IC50 [2] [mg/L] | IC50 (NCI-H460) [mg/L] |
| --- | --- | --- | --- | --- |
| C=C(C(=O)c1cc(OC)c(O)c(OC)c1)[C@@H](CO)C(=O)c1cc(OC)c(O)c(OC)c1 | 45.5 (≈ 105 µM) | 28.7 (≈ 66.3 µM) | 34.5 (≈ 79.7 µM) | 31.4 (≈ 72.7 µM) |
| C=C(C(=O)c1cc(OC)c(O)c(OC)c1)[C@H](CO)C(=O)c1cc(OC)c(O)c(OC)c1 | > 100 | 53.3 (≈ 123 µM) | > 100 | 63.4 (≈ 147 µM) |
| C=C(C(=O)c1cc(OC)c(O)c(OC)c1)C(CO)C(=O)c1cc(OC)c(O)c(OC)c1 (racemic) | 58.9 (≈ 136 µM) | 51.4 (≈ 119 µM) | 67.5 (≈ 156 µM) | 58.1 (≈ 134 µM) |
